Data on eight compounds can be found in ChEMBL document CHEMBL6121016, “Design, Synthesis, and Biological Evaluation of 1,3,4-Thiadiazole Derivatives as Novel Potent Peptide Deformylase Inhibitors for Combating Drug-Resistant Gram-Positive and -Negative Bacteria” (J Med Chem, 2025).

The subject of data set [1] is Staphylococcus aureus. Briefly: Antibacterial activity against methicillin-resistant Staphylococcus aureus ATCC 33591 after 16 to 18 hrs by broth microdilution method. Particulars: time 16-18 hrs. It is filed as functional. (In general: In broth dilution the organism is exposed to a series of concentrations in liquid medium.)
The subject of data set [2] is Staphylococcus aureus. Briefly: Antibacterial activity against methicillin-resistant Staphylococcus aureus ATCC 43300 after 16 to 18 hrs by broth microdilution method. Type of data set: functional. Particulars: time 16-18 hrs.
Data set [3] relates to Staphylococcus aureus. Briefly: Antibacterial activity against methicillin-resistant Staphylococcus aureus Bio-090770 after 16 to 18 hrs by broth microdilution method. Type of data set: functional. Particulars: time 16-18 hrs.
The subject of data set [4] is Staphylococcus aureus. As to the kind of experiment: Antibacterial activity against methicillin-susceptible Staphylococcus aureus ATCC 29213 after 16 to 18 hrs by broth microdilution method. To be noted: time 16-18 hrs. Type of data set: functional.
Data set [5] relates to Staphylococcus aureus. Briefly: Antibacterial activity against methicillin-susceptible Staphylococcus aureus ATCC 25923 after 16 to 18 hrs by broth microdilution method. Type of data set: functional. To be noted: time 16-18 hrs.
Data set [6] relates to Staphylococcus aureus. Briefly: Antibacterial activity against methicillin-susceptible Staphylococcus aureus ATCC 13709 after 16 to 18 hrs by broth microdilution method. It is filed as functional. To be noted: time 16-18 hrs.
Data set [7] has as its system Staphylococcus epidermidis. As to the kind of experiment: Antibacterial activity against Staphylococcus epidermidis after 16 to 18 hrs by broth microdilution method. Type of data set: functional. To be noted: time 16-18 hrs.
In data set [8] the test system is Escherichia coli. Briefly: Antibacterial activity against Escherichia coli ATCC 25922 after 16 to 18 hrs by broth microdilution method. Particulars: time 16-18 hrs. Type of data set: functional.
Data set [9] relates to Klebsiella pneumoniae. Briefly: Antibacterial activity against Klebsiella pneumoniae CICC 21611 after 16 to 18 hrs by broth microdilution method. Type of data set: functional. Particulars: time 16-18 hrs.
The test system of data set [10] is Acinetobacter baumannii. As to the kind of experiment: Antibacterial activity against Acinetobacter baumannii Bio 34235 after 16 to 18 hrs by broth microdilution method. Type of data set: functional. To be noted: time 16-18 hrs.
In data set [11] the test system is Acinetobacter baumannii. As to the kind of experiment: Antibacterial activity against drug-resistant Acinetobacter baumannii Bio 53272 after 16 to 18 hrs by broth microdilution method. Type of data set: functional. To be noted: time 16-18 hrs.
Data set [12] can be described thus: Methemoglobin toxicity in human blood at 500 uM incubated for 6 hrs by MetHb content assay. Type of data set: tissue-based.
The subject of data set [13] is Acinetobacter baumannii. As to the kind of experiment: Antibacterial activity against Acinetobacter baumannii Bio 53272 after 16 to 18 hrs by broth microdilution method. Particulars: time 16-18 hrs. Type of data set: functional.
In data set [14] the test system is Acinetobacter baumannii. Briefly: Antibacterial activity against Acinetobacter baumannii Bio 24253 after 16 to 18 hrs by broth microdilution method. Type of data set: functional. Particulars: time 16-18 hrs.
In data set [15] the test system is Acinetobacter baumannii. As to the kind of experiment: Antibacterial activity against Acinetobacter baumannii Bio 53250 after 16 to 18 hrs by broth microdilution method. Particulars: time 16-18 hrs. Type of data set: functional.
Data set [16] deals with Acinetobacter baumannii. Briefly: Antibacterial activity against Acinetobacter baumannii Bio 69680 after 16 to 18 hrs by broth microdilution method. It is filed as functional. Particulars: time 16-18 hrs.
In data set [17] the test system is Acinetobacter baumannii. Briefly: Antibacterial activity against Acinetobacter baumannii Bio 120982 after 16 to 18 hrs by broth microdilution method. It is filed as functional. To be noted: time 16-18 hrs.
For data set [18], the system named is Klebsiella pneumoniae. As to the kind of experiment: Antibacterial activity against Klebsiella pneumoniae CICC 21092 after 16 to 18 hrs by broth microdilution method. It is filed as functional. Particulars: time 16-18 hrs.
Data set [19] has as its system Klebsiella pneumoniae. As to the kind of experiment: Antibacterial activity against Klebsiella pneumoniae CICC 20093 after 16 to 18 hrs by broth microdilution method. It is filed as functional. To be noted: time 16-18 hrs.
The test system of data set [20] is Escherichia coli. As to the kind of experiment: Antibacterial activity against Escherichia coli ATCC 10668 after 16 to 18 hrs by broth microdilution method. It is filed as functional. To be noted: time 16-18 hrs.
The subject of data set [21] is Escherichia coli. Briefly: Antibacterial activity against Escherichia coli ATCC 10663 after 16 to 18 hrs by broth microdilution method. Particulars: time 16-18 hrs. Type of data set: functional.
The test system of data set [22] is Escherichia coli. As to the kind of experiment: Antibacterial activity against Escherichia coli ATCC 10661 after 16 to 18 hrs by broth microdilution method. It is filed as functional. Particulars: time 16-18 hrs.
Data set [23] can be described thus: Cytotoxicity against human HEK293T cells assessed as cell viability at 3.125 to 100 uM incubated for 24 hrs by MTT assay. Type of data set: toxicity, cell-based, HEK-293T. (In general: Tetrazolium dyes change colour on reduction, which living cells bring about.)
The nature of data set [24]: Cytotoxicity against human HeLa cells assessed as cell viability at 3.125 to 100 uM incubated for 24 hrs by MTT assay. Type of data set: toxicity, cell-based.

What is called MIC is the least concentration at which growth counts as inhibited. By IC50 is commonly meant the midpoint of a concentration-inhibition curve.

Converted amounts (≈) assume the structure as drawn.

For `CCCC[C@H](CN(O)C=O)C(=O)N1CCC[C@H]1c1nnc(-c2nccs2)s1`, the minimum inhibitory concentration (MIC) in [1] is 0.25 µg/mL (≈ 0.61 µM); in data set [2], 0.25 µg/mL (≈ 0.61 µM); in data set [3], 1 µg/mL (≈ 2.44 µM); in [4], 2 µg/mL (≈ 4.88 µM); in data set [5] it was 1 µg/mL (≈ 2.44 µM); in [6], 0.5 µg/mL (≈ 1.22 µM). In addition, the minimum inhibitory concentration (MIC) is 0.25 µg/mL (≈ 0.61 µM) in data set [7]; over 16 µg/mL in data set [8]; over 16 µg/mL in data set [9]; 16 µg/mL (≈ 39.1 µM) in [10]; 8 µg/mL (≈ 19.5 µM) in [11]. Besides, the Activity entry in data set [12] is “Toxic”.
`CC(=O)NC[C@H]1CN(c2ccc(N3CCOCC3)c(F)c2)C(=O)O1` [LINEZOLID]: the MIC in data set [1], in data set [2], in data set [3], in data set [4], in data set [5] and in data set [6] was 1 µg/mL (≈ 2.96 µM) in each case. Also, the MIC in data set [7] is 8 µg/mL (≈ 23.7 µM); in [8], over 128 µg/mL; in data set [9] it was 128 µg/mL (≈ 379 µM); in data set [10] it was 128 µg/mL (≈ 379 µM); in data set [11] it was over 16 µg/mL; in [13], 128 µg/mL (≈ 379 µM). In addition, the MIC in data set [14] is 128 µg/mL (≈ 379 µM); in data set [15] it was 128 µg/mL (≈ 379 µM); in [16], 128 µg/mL (≈ 379 µM); in data set [17] it was 128 µg/mL (≈ 379 µM); in [18] it was over 128 µg/mL; in [19], 128 µg/mL (≈ 379 µM). In addition, the MIC was found to be 128 µg/mL (≈ 379 µM) in data set [20], 64 µg/mL (≈ 190 µM) in [21] and 16 µg/mL (≈ 47.4 µM) in data set [22]. The 50% inhibitory concentration (IC50) at 24 h in data set [23] and in [24] was over 100 µM throughout.
`CCCCc1ccc(-c2nnc([C@@H]3CCCN3C(=O)[C@H](CCCC)CN(O)C=O)s2)cc1`: the MIC in data set [1] amounted to 2 µg/mL (≈ 4.36 µM); in data set [2], 2 µg/mL (≈ 4.36 µM); in data set [3], 4 µg/mL (≈ 8.72 µM); in data set [4], 4 µg/mL (≈ 8.72 µM); in data set [5], 4 µg/mL (≈ 8.72 µM); in data set [6] it was 4 µg/mL (≈ 8.72 µM). Besides, the minimal inhibitory concentration (MIC) was 8 µg/mL (≈ 17.4 µM) in [7]; over 16 µg/mL in [8]; over 16 µg/mL in data set [9]; over 16 µg/mL in [10]; over 16 µg/mL in data set [11].
On to `Nc1ccc(S(=O)(=O)c2ccc(N)cc2)cc1` [DAPSONE], for which the Activity result in data set [12] was “Toxic”.
In the case of `CCCC[C@H](CN(O)C=O)C(=O)N1CCC[C@H]1c1nnc(-c2ccc([N+](=O)[O-])cc2)s1`, the minimal inhibitory concentration (MIC) in [1] came out at 0.25 µg/mL (≈ 0.559 µM); in data set [2] it was 0.25 µg/mL (≈ 0.559 µM); in data set [3] it was 1 µg/mL (≈ 2.23 µM); in data set [4], 0.5 µg/mL (≈ 1.12 µM); in data set [5] it was 0.5 µg/mL (≈ 1.12 µM); in data set [6], 0.5 µg/mL (≈ 1.12 µM). For the same compound, the MIC is 1 µg/mL (≈ 2.23 µM) in data set [7]; over 16 µg/mL in [8]; over 16 µg/mL in [9]; over 16 µg/mL in [10]; 8 µg/mL (≈ 17.9 µM) in [11].
With `CCCC[C@H](CN(O)C=O)C(=O)N1CCC[C@H]1c1nnc(Cc2cccs2)s1`, the minimal inhibitory concentration (MIC) worked out at 0.5 µg/mL (≈ 1.18 µM) in [1]; 1 µg/mL (≈ 2.37 µM) in [2]; 2 µg/mL (≈ 4.73 µM) in data set [3]; 2 µg/mL (≈ 4.73 µM) in data set [4]; 2 µg/mL (≈ 4.73 µM) in data set [5]; 2 µg/mL (≈ 4.73 µM) in data set [6]. In addition, the minimal inhibitory concentration (MIC) in [7] was 2 µg/mL (≈ 4.73 µM); in data set [8] it was over 16 µg/mL; in data set [9], over 16 µg/mL; in data set [10], 16 µg/mL (≈ 37.9 µM); in data set [11], 16 µg/mL (≈ 37.9 µM).
For the compound `CCCC[C@H](CN(O)C=O)C(=O)N1CCC[C@H]1c1nnc(C)s1`, the MIC in [1] turned out to be 1 µg/mL (≈ 2.94 µM); in [2], 4 µg/mL (≈ 11.7 µM); in data set [3], 4 µg/mL (≈ 11.7 µM); in data set [4] it was 4 µg/mL (≈ 11.7 µM); in data set [5], 4 µg/mL (≈ 11.7 µM); in data set [6], 4 µg/mL (≈ 11.7 µM). Further, the MIC in data set [7] is 0.25 µg/mL (≈ 0.734 µM); in data set [8], 16 µg/mL (≈ 47 µM); in [9], over 16 µg/mL; in data set [10], over 16 µg/mL; in [11], 8 µg/mL (≈ 23.5 µM).
Take `CCCC[C@H](CN(O)C=O)C(=O)N1CCC[C@H]1c1nnc(-c2cc(C)nn2C)s1`: the MIC in [1] amounted to 0.25 µg/mL (≈ 0.594 µM); in data set [2], 0.25 µg/mL (≈ 0.594 µM); in data set [3], 1 µg/mL (≈ 2.38 µM); in data set [4], 1 µg/mL (≈ 2.38 µM); in data set [5], 1 µg/mL (≈ 2.38 µM); in data set [6], 1 µg/mL (≈ 2.38 µM). Further, the minimal inhibitory concentration (MIC) in data set [7] was 1 µg/mL (≈ 2.38 µM); in [8], 64 µg/mL (≈ 152 µM); in [9], 32 µg/mL (≈ 76.1 µM); in [10], 32 µg/mL (≈ 76.1 µM); in data set [11], 16 µg/mL (≈ 38 µM).
